According to patent US7772271B2 (priority 2004, dated 2010):

Compound	melting point
N#Cc1c(-c2ccc(NS(=O)(=O)NCC3CC3)cc2)n(C2CCC2)c2cc(OC3CCOCC3)ccc12 [Compound 2837]	210 to 212 °C
CC[C@H](C)NS(=O)(=O)Nc1ccc(-c2c(C#N)c3ccc(OC4CCOCC4)cc3n2C2CCC2)cc1 [Compound 2835]	196 to 198 °C
N#Cc1c(-c2ccc(NS(=O)(=O)C3CC3)cc2)n(C2CCC2)c2cc(OC3CCOCC3)ccc12 [Compound 2747]	202 to 204 °C
N#Cc1c(-c2ccc(N3CCCS3(=O)=O)cc2)n(C2CCC2)c2cc(N3CCOCC3)ccc12 [Compound 2914]	290 to 292 °C
N#Cc1c(-c2ccc(NS(=O)(=O)C3CC3)cc2)n(C2CCC2)c2cc(N3CCCC3)ccc12 [Compound 2960]	258 to 260 °C
CC(C)S(=O)(=O)Nc1ccc(-c2c(C#N)c3cc(Oc4ncccn4)ccc3n2C2CCC2)cc1 [Compound 2848]	206 to 207 °C
CC(C)S(=O)(=O)Nc1ccc(-c2c(C#N)c3ccc(N4CCCCC4)cc3n2C2CCC2)cc1 [Compound 2968]	233 to 235 °C
CC(C)NC(=O)Oc1ccc(-c2c(C#N)c3ccc(OC4CCOCC4)cc3n2CC2CC2)cc1 [Compound 2782]	161 to 163 °C
CCn1c(-c2ccc(N3CCCS3(=O)=O)cc2)c(C#N)c2ccc(N3CCN(C(=O)c4ccccc4)CC3)cc21 [Compound 1358]	260 to 261 °C
CCCS(=O)(=O)Nc1ccc(-c2c(C#N)c3ccc(Oc4nccc(C)n4)cc3n2C2CCC2)cc1 [Compound 2902]	223 to 227 °C
CCS(=O)(=O)Nc1ccc(-c2c(C#N)c3ccc(N4CCCCC4)cc3n2C2CCC2)cc1 [Compound 2974]	203 to 205 °C
CCOc1ccc2c(C#N)c(-c3ccc(NC(=O)O[C@H](C)C(F)(F)F)cc3)n(C3CCC3)c2c1 [Compound 2878]	196 to 199 °C
N#Cc1c(-c2ccc(NC(=O)NC3CCC3)cc2)n(C2CCC2)c2cc(N3CCOCC3)ccc12 [Compound 2863]	172 °C (dec.)
N#Cc1c(-c2ccc(NCc3ccccc3C(F)(F)F)cc2)n(C2CCC2)c2cc(OCCF)ccc12 [Compound 2970]	183 to 185 °C
Cc1ccnc(Oc2ccc3c(C#N)c(-c4ccc(NC(=O)O[C@H](C)C5CC5)cc4Cl)n(C4CCC4)c3c2)n1 [Compound 3059]	97 to 109 °C
CC(C)OC(=O)Nc1ccc(-c2c(C#N)c3ccc(Oc4ncccn4)cc3n2C2CCC2)cc1OC(F)(F)F [Compound 3035]	94 to 96 °C
CCn1c(-c2ccc(N3CCCS3(=O)=O)cc2)c(C#N)c2ccc(OCCOCCOC)cc21 [Compound 1333]	160 to 164 °C
CC(OC(=O)Nc1ccc(-c2c(C#N)c3ccc(OCC4OCCO4)cc3n2C2CCC2)cc1)C(F)(F)F (centres unmarked) [Compound 2646]	187 to 189 °C
C[C@@H](OC(=O)Nc1ccc(-c2c(C#N)c3ccc(N4CCOCC4)cc3n2C2CC2)cc1)C1CC1 [Compound 2857]	176 to 179 °C
CC(C)n1c(-c2ccc(NC(=O)O[C@H](C)C3CC3)cc2)c(C#N)c2ccc(O[C@@H]3CCOC3)cc21 [Compound 2743]	151 to 153 °C
CCCS(=O)(=O)Nc1ccc(-c2c(C#N)c3ccc(Oc4nccc(C)n4)cc3n2C2CC2)cc1 [Compound 2939]	239 to 241 °C

Compound	melting point
COc1ccnc(Oc2ccc3c(C#N)c(-c4ccc(NS(=O)(=O)CC(C)C)cc4)n(C4CCC4)c3c2)n1 [Compound 2904]	182 to 186 °C
C[C@@H](OC(=O)Nc1ccc(-c2c(C#N)c3ccc(O[C@@H]4CCOC4)cc3n2C2CCC2)cc1)C(F)(F)F [Compound 2853]	189 to 190 °C
CS(=O)(=O)Nc1ccc(-c2c(C#N)c3ccc(OC4CCOCC4)cc3n2C2CC2)cc1 [Compound 2911]	205 to 207 °C
N#Cc1c(-c2ccc(NS(=O)(=O)C3CC3)cc2)n(CC2CC2)c2cc(OC3CCOCC3)ccc12 [Compound 2768]	99 to 102 °C
CCCn1c(-c2ccc(NC(=O)N(CC)CC)cc2)c(C#N)c2ccc(OC)cc21 [Compound 1386]	213 to 214 °C
CCCS(=O)(=O)Nc1ccc(-c2c(C#N)c3ccc(N4CCOCC4)cc3n2C2CCC2)cc1 [Compound 3013]	176 to 179 °C
COCCOc1ccc2c(C#N)c(-c3ccc(C(=O)N4CCC4)cc3)n(C3CCC3)c2c1 [Compound 2755]	166 to 168 °C
CC(OC(=O)Nc1ccc(-c2c(C#N)c3ccc(OC4CCOCC4)cc3n2C2CC2)cc1)C(F)(F)F (centres unmarked) [Compound 2649]	207 to 209 °C
CCCS(=O)(=O)Nc1ccc(-c2c(C#N)c3ccc(Oc4nccnc4C)cc3n2C2CCC2)cc1 [Compound 2931]	227 to 230 °C
N#Cc1c(-c2ccc(OC(=O)NC3CCCC3)cc2)n(CC2CC2)c2cc(OC3CCOCC3)ccc12 [Compound 2784]	169 to 171 °C
CCCS(=O)(=O)Nc1ccc(-c2c(C#N)c3ccc(Oc4nccnc4Cl)cc3n2C2CC2)cc1 [Compound 2937]	183 to 184 °C
C[C@@H](OC(=O)Nc1ccc(-c2c(C#N)c3ccc(OC4CCOCC4)cc3n2C2CC2)cc1)c1ccc(F)cc1 [Compound 2869]	108 to 111 °C
N#Cc1c(-c2ccc(NS(=O)(=O)C3CCC3)cc2)n(C2CCC2)c2cc(C(=O)N3CCOCC3)ccc12 [Compound 2900]	198 to 200 °C
CC(C)(C)OC(=O)Nc1ccc(-c2c(C#N)c3ccc(OCS(C)(=O)=O)cc3n2C2CCCC2)cc1 [Compound 3066]	237 to 241 °C
CC(OC(=O)Nc1ccc(-c2c(C#N)c3ccc(OC4CCOCC4)cc3n2C2CCC2)cc1)C(F)(F)F (centres unmarked) [Compound 2668]	195 to 197 °C
CC(NC(=O)Nc1ccc(-c2c(C#N)c3ccc(OC4CCOC4)cc3n2C2CC2)cc1)c1ccc(F)cc1 (centres unmarked) [Compound 1448]	182 to 184 °C
COCCOc1ccc2c(C#N)c(-c3ccc(NS(=O)(=O)C4CC4)cc3)n(C3CCC3)c2c1 [Compound 1417]	192 to 193 °C
CC(C)NC(=O)Nc1c(F)cc(-c2c(C#N)c3ccc(Oc4ncccn4)cc3n2C2CCC2)cc1F [Compound 3038]	236 to 243 °C
Cc1nccc(Oc2ccc3c(C#N)c(-c4ccc(NC(=O)O[C@H](C)C5CC5)cc4)n(C4CC4)c3c2)n1 [Compound 2715]	123 to 125 °C
C[C@@H](OC(=O)Nc1ccc(-c2c(C#N)c3cc(Oc4cnccn4)ccc3n2C2CCC2)cc1)C1CC1 [Compound 2995]	206 to 208 °C

Other lines, results leading:

melting point	Compound
205 to 208 °C	N#Cc1nccnc1Oc1ccc2c(C#N)c(-c3ccc(NS(=O)(=O)CC4CCC4)cc3)n(CC3CC3)c2c1 [Compound 3238]
243 to 246 °C	CCCS(=O)(=O)Nc1ccc(-c2c(C#N)c3ccc(Oc4nccnc4C#N)cc3n2CC2CC2)c(Cl)c1 [Compound 3307]
193 to 194 °C	CC(C)NC(=O)N(C(=O)NC(C)C)c1ccc(-c2c(C#N)c3ccc(-c4ccccn4)cc3n2C2CCC2)cc1 [Compound 3226]
249 to 250 °C	CCOc1ccc2c(C#N)c(-c3ccc4c(c3)CCC(=O)N4)n(C3CCC3)c2c1 [Compound 3221]
215 to 216 °C	CN(C)/C=N/c1ccc(-c2c(C#N)c3ccc(Oc4ncccn4)cc3n2C2CCC2)cc1Cl [Compound 3300]
152 to 153 °C	CC(C)NC(=O)COc1ccc(-c2c(C#N)c3ccc(OC4CCOCC4)cc3n2C2CCC2)cc1 [Compound 3109]
249 to 256 °C	CC(C)n1c(-c2ccc(NC(=O)O[C@H](C)C3CC3)cc2)c(C#N)c2ccc(OC3CCS(=O)(=O)CC3)cc21 [Compound 3235]
206 to 208 °C	CC(C)OC(=O)Nc1ccc(-c2c(C#N)c3ccc(N4CCOCC4)cc3n2C2CCC2)cc1 [compound 2800, [4-(3-cyano-1-cyclobutyl-6-morpholin-4-yl-1H-indol-2-yl)-phenyl]-carbamic acid isopropyl ester]
193 to 196 °C	N#Cc1nccnc1Oc1ccc2c(C#N)c(-c3ccc(NS(=O)(=O)C4CC4)cc3)n(CC3CC3)c2c1 [Compound 3239]
207 to 211 °C	CCOc1ccc2c(C#N)c(-c3ccc(NC(=O)OC4CCN(C(=O)OC(C)(C)C)CC4)cc3)n(C3CCC3)c2c1 [Compound 3069]
279 to 285 °C	N#Cc1c(-c2ccc(NS(=O)(=O)C3CC3)cc2)n(C2CCC2)c2cc(OC3CCS(=O)(=O)CC3)ccc12 [Compound 3185]
120 to 122 °C	CCSc1ccc2c(C#N)c(-c3ccc(NC(=O)O[C@H](C)C4CC4)cc3)n(C3CCC3)c2c1 [compound 2720, (R)-[4-(3-cyano-1-cyclobutyl-6-ethylsulfanyl-1H-indol-2-yl)-phenyl]-carbamic acid 1-cyclopropyl-ethyl ester]
170 to 171 °C	CCC(=O)Nc1ccc(-c2c(C#N)c3ccc(N4CCN(C)CC4)cc3n2CC)cc1 [compound 1341, N-{4-[3-cyano-1-ethyl-6-(4-methylpiperazin-1-yl)-indol-2-yl]phenyl}propionamide]
231 to 233 °C	N#Cc1c(-c2ccc(NS(=O)(=O)c3ccccc3)cc2)n(C2CCC2)c2cc(OC3CCOCC3)ccc12 [Compound 3091]
195 to 201 °C	COc1ccc(Nc2ccc(-c3c(C#N)c4ccc(OC5CCOCC5)cc4n3C3CCC3)cc2)cc1C [Compound 3159]
165 to 166 °C	CN(C)c1ccc(NC(=O)Oc2ccc(-c3c(C#N)c4ccc(OC5CCOCC5)cc4n3C3CCC3)cc2)cc1 [Compound 3111]
185 to 188 °C	CC(C)c1ccc(Nc2ccc(-c3c(C#N)c4ccc(OC5CCOCC5)cc4n3C3CCC3)cc2)cc1 [Compound 3127]
222 to 225 °C	CCCS(=O)(=O)Nc1ccc(-c2c(C#N)c3ccc(Oc4nccnc4C#N)cc3n2C2CCC2)c(C)c1 [Compound 3274]
183 to 185 °C	C[C@@H](OC(=O)Nc1ccc(-c2c(C#N)c3ccc(-c4ncccc4C#N)cc3n2C2CCC2)cc1)C1CC1 [Compound 3243]
99 to 101 °C	C[C@@H](OC(=O)Nc1ccc(-c2cc3ccc(Oc4nccnc4C#N)cc3n2CC2CC2)cc1)C(F)(F)F [Compound 3284]
222 to 226 °C	CCCS(=O)(=O)Nc1ccc(-c2c(C#N)c3ccc(Oc4ncccc4C#N)cc3n2C2CC2)c(C)c1 [Compound 3304]
